Here are results for twelve molecules from ChEMBL document CHEMBL1221354, “Synthesis of polyhydroxylated aromatics having amidation of piperazine nitrogen as HIV-1 integrase inhibitor” (Bioorg Med Chem Lett, 2010).

Broadly, the IC50 is the concentration that inhibits the measured activity by half. Lower therefore signals greater potency in that assay.

This assay has as its target Human immunodeficiency virus type 1 integrase (Human immunodeficiency virus 1, UniProt Q7ZJM1). Nature of the assay: Inhibition of HIV1 integrase strand transfer activity after 1 hr.

Chain of Human immunodeficiency virus type 1 integrase (Q7ZJM1 whole entry): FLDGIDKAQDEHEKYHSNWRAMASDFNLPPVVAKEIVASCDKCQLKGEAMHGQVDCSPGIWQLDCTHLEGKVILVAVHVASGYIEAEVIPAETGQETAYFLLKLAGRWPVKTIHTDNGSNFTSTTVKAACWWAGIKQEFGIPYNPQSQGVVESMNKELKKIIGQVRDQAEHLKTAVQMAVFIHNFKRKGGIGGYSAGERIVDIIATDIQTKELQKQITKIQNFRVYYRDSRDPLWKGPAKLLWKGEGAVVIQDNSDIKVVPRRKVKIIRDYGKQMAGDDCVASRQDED

`O=C(NCCCN1CCN(C(=O)/C=C/c2ccccc2)CC1)c1ccc(O)c(O)c1` yielded an IC50 greater than 100 µM.
In the case of `Cc1ccc(/C=C/C(=O)N2CCN(CCCNC(=O)c3ccc(O)c(O)c3)CC2)cc1` it was greater than 100 µM; in that of `O=C(NCCCN1CCN(C(=O)/C=C/c2ccc(Cl)cc2)CC1)c1ccc(O)c(O)c1`, greater than 100 µM.
The molecule `O=C(NCCCN1CCN(C(=O)/C=C/c2ccccc2Cl)CC1)c1ccc(O)c(O)c1` displayed an IC50 greater than 100 µM.
In the case of `O=C(NCCCN1CCN(C(=O)/C=C/c2cccc(O)c2)CC1)c1ccc(O)c(O)c1` it was greater than 100 µM; in that of `O=C(NCCCN1CCN(C(=O)/C=C/c2ccccc2)CC1)c1cc(O)c(O)c(O)c1`, 12.8 µM; in that of `Cc1ccc(/C=C/C(=O)N2CCN(CCCNC(=O)c3cc(O)c(O)c(O)c3)CC2)cc1`, 17.5 µM.
For `O=C(NCCCN1CCN(C(=O)/C=C/c2ccc(Cl)cc2)CC1)c1cc(O)c(O)c(O)c1` the value was 24.9 µM; for `O=C(NCCCN1CCN(C(=O)/C=C/c2ccccc2Cl)CC1)c1cc(O)c(O)c(O)c1`, 19.3 µM.
For `O=C(NCCCN1CCN(C(=O)/C=C/c2ccccc2[N+](=O)[O-])CC1)c1cc(O)c(O)c(O)c1` the value was 31.3 µM.
`O=C(NCCCN1CCN(C(=O)/C=C/c2cccc(O)c2)CC1)c1cc(O)c(O)c(O)c1` showed a concentration for half-maximal inhibition (IC50) of 15.4 µM. Compared with the last molecule, the IC50 is about 2-fold lower.
`O=C(O)C(=O)CC(=O)c1cc(OCc2ccccc2)cc(OCc2ccccc2)c1` returned an IC50 of 0.77 µM.
